Measurements as given in the NIST ThermoML archive (doi:10.1021/je700260f).

Details: 313.15 K, Liquid, Vibrating tube method

FC(C(F)(F)F)C(F)(F)F [1,1,1,2,3,3,3-heptafluoropropane]
Details	mass density [kg/m3]
20571 kPa	1453
20603 kPa	1453
20639 kPa	1453.2
20675 kPa	1453.5
20721 kPa	1453.6
20757 kPa	1453.8
20799 kPa	1454.1
20826 kPa	1454.2
20865 kPa	1454.4
20902 kPa	1454.4
20933 kPa	1454.7
20969 kPa	1454.7
21003 kPa	1454.9
21049 kPa	1455
21080 kPa	1455.2
21213 kPa	1455.8
21240 kPa	1455.9
21275 kPa	1456
21319 kPa	1456.3
21355 kPa	1456.5
21405 kPa	1456.7
21435 kPa	1456.8
21466 kPa	1456.9
21512 kPa	1457.1
21547 kPa	1457.2
21593 kPa	1457.5
21628 kPa	1457.6
21665 kPa	1457.8
21700 kPa	1457.8
21742 kPa	1458
21776 kPa	1458.2
21813 kPa	1458.3
21844 kPa	1458.5
21885 kPa	1458.7
21927 kPa	1458.9
21953 kPa	1459
21990 kPa	1459.2
22027 kPa	1459.2
22064 kPa	1459.5
22100 kPa	1459.6
22131 kPa	1459.8
22172 kPa	1459.9
22203 kPa	1460.1
22245 kPa	1460.1
22276 kPa	1460.2
22312 kPa	1460.6
22349 kPa	1460.5
22385 kPa	1460.8
22411 kPa	1460.8
22447 kPa	1461
22489 kPa	1461.3
22532 kPa	1461.4
22579 kPa	1461.6
22611 kPa	1461.7
22653 kPa	1461.9
22684 kPa	1462.2
22722 kPa	1462.2
22758 kPa	1462.5
22796 kPa	1462.5
22828 kPa	1462.7
22876 kPa	1462.9
22922 kPa	1463.1
22954 kPa	1463.3
22986 kPa	1463.2
23028 kPa	1463.7
23054 kPa	1463.7
23096 kPa	1463.7
23132 kPa	1464
23180 kPa	1464.2
23217 kPa	1464.3
23384 kPa	1465
23422 kPa	1465.2
23463 kPa	1465.3
23511 kPa	1465.4
23548 kPa	1465.7
23585 kPa	1465.8
23623 kPa	1466
23672 kPa	1466.2
23710 kPa	1466.2
23760 kPa	1466.5
23805 kPa	1466.6
23840 kPa	1466.9
23893 kPa	1467
23939 kPa	1467.2
23980 kPa	1467.2
24015 kPa	1467.5
24073 kPa	1467.7
24121 kPa	1467.8
24163 kPa	1468.1
24204 kPa	1468.4
24258 kPa	1468.6
24299 kPa	1468.7
24341 kPa	1468.9
24400 kPa	1469.2
24441 kPa	1469.3
24471 kPa	1469.4
24517 kPa	1469.5
24552 kPa	1469.6
24586 kPa	1469.7
24643 kPa	1470
24690 kPa	1470.3
24731 kPa	1470.4
24772 kPa	1470.6
24813 kPa	1470.8
24848 kPa	1470.8
24899 kPa	1471.1
24951 kPa	1471.3
24991 kPa	1471.5
25031 kPa	1471.7
25225 kPa	1472.4
25266 kPa	1472.5
25303 kPa	1472.6
25346 kPa	1472.9
25382 kPa	1473
25428 kPa	1473.2
25464 kPa	1473.3
27024 kPa	1479.1
27078 kPa	1479.5
27113 kPa	1479.5
27168 kPa	1479.8
27215 kPa	1479.9
27250 kPa	1480.2
27333 kPa	1480.4
27378 kPa	1480.4
27415 kPa	1480.8
27452 kPa	1480.9
27512 kPa	1481.1
27562 kPa	1481.4
27616 kPa	1481.6
27789 kPa	1482.1
27894 kPa	1482.6
27923 kPa	1482.7
27959 kPa	1482.7
27997 kPa	1482.8
28031 kPa	1483
28065 kPa	1483.1
28094 kPa	1483.2
28137 kPa	1483.5
28166 kPa	1483.6
28213 kPa	1483.6
28253 kPa	1483.8
28282 kPa	1484
28311 kPa	1484
28349 kPa	1484.3
28389 kPa	1484.3
28424 kPa	1484.5
28465 kPa	1484.6
28499 kPa	1484.8
28538 kPa	1484.9
28567 kPa	1485
28613 kPa	1485.2
28643 kPa	1485.2
28674 kPa	1485.3
28717 kPa	1485.6
28761 kPa	1485.7
29100 kPa	1487
29135 kPa	1487
29166 kPa	1487.2
29208 kPa	1487.3
29239 kPa	1487.5
29269 kPa	1487.5
29305 kPa	1487.6
29341 kPa	1487.9
29381 kPa	1487.9
29416 kPa	1488
29450 kPa	1488.1
29496 kPa	1488.3
29525 kPa	1488.6
29570 kPa	1488.6
29610 kPa	1488.7
31429 kPa	1495.1
31477 kPa	1495.4
31513 kPa	1495.4
31554 kPa	1495.6
31782 kPa	1496.5
31819 kPa	1496.4
31856 kPa	1496.6
31894 kPa	1496.7
31931 kPa	1496.9
31964 kPa	1497
32008 kPa	1497.3
32040 kPa	1497.3
32094 kPa	1497.4
32170 kPa	1497.7
32235 kPa	1497.9
32288 kPa	1498.1
32326 kPa	1498.2
32700 kPa	1499.5
33062 kPa	1500.7
33127 kPa	1500.8
33176 kPa	1501.1
33220 kPa	1501.2
33258 kPa	1501.4
33290 kPa	1501.5
33332 kPa	1501.7
33375 kPa	1501.7
33408 kPa	1501.8
33462 kPa	1501.9
33502 kPa	1502.1
33551 kPa	1502.5
33585 kPa	1502.3
33640 kPa	1502.6
33684 kPa	1502.6
33729 kPa	1502.8
33763 kPa	1503
33807 kPa	1503.2
